US20090054515A1, “SKIN-WHITENING COSMETIC” (POLA CHEMICAL INDUSTRIES INC., priority 2006, published 2009)

What was measured:
Trp-2 = experiment: Expression of Trp-2 by Western blotting; assay type: cell-based; conditions: 5 μM, 72-hour culture, human normal melanocytes
Protocol: (§1) A cell suspension of human normal melanocytes (from Kurabo Industries Ltd.) in a medium for culturing melanocytes (Medium 254, from Kurabo Industries Ltd.) was prepared at 7×10^4 cells/mL and inoculated into φ10-cm culture petri dishes in an amount of 10 mL per dish, and the cells were cultured in a CO2 incubator (37° C., 5% CO2). The next day, the medium was removed, and a medium for culturing melanocytes containing 2 μM or 5 μM Compound (1) or a medium for culturing melanocytes (control) was added in an amount of 10 mL per dish, followed by culture in a CO2 incubator for 72 hours. After 72-hour culture, the medium was removed, and the cells were washed with phosphate buffered saline (PBS) and collected using a cell scraper. A protein extraction solution (0.1% NP-40, 0.01% SDS, 10 mM sodium phosphate buffer (pH 6.8), protease inhibitor) was added to the cell pellets to suspend the cells, and the suspension was shaken at 4° C. for 1 hour. The resultant was centrifuged at 4° C. and 15,000 rpm for 10 minutes, and the supernatant was collected and used as a crude protein extract. […]
(§2) The membrane was washed with TPBS, and proteins were detected using an ECL Plus western blotting detection system. […]

Trp-1 = experiment: Expression of Trp-1 by Western blotting; assay type: cell-based; conditions: 5 μM, 72-hour culture, human normal melanocytes
Protocol: as §1, §2

tyrosinase = experiment: Expression of tyrosinase by Western blotting; assay type: cell-based; conditions: 5 μM, 72-hour culture, human normal melanocytes
Protocol: as §1, §2

[1] = biological target: T1, tyrosinase extracted from normal human melanocytes (Homo sapiens, UniProt P14679); experiment: Normal human melanocytes tyrosinase activity inhibition test (dopa-oxidizing activity); assay type: biochemical; conditions: for Dopa-oxidizing activity: control defined as 100%, 10 minutes at 37° C.; for action on the activity of tyrosinase: 1 to 100 μM
T1 construct: to thereby produce a protein solution, which was used as a crude tyrosinase protein solution; host or cells: human normal melanocytes; extract made with a Subcellular Proteome Extraction Kit (Calbiochem)
T1 sequence (P14679 19-529): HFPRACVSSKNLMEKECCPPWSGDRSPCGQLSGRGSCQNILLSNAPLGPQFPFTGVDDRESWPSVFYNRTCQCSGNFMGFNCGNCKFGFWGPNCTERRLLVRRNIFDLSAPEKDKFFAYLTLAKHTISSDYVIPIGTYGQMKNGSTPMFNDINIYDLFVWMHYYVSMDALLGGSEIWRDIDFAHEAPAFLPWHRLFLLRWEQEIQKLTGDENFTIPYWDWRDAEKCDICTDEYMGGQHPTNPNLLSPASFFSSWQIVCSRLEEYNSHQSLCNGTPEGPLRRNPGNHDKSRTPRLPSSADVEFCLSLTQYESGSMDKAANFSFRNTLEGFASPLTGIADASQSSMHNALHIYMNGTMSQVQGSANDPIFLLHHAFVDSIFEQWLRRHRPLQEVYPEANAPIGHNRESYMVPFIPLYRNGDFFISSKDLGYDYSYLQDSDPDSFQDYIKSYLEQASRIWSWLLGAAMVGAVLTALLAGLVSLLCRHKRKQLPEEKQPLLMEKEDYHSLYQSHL
Protocol: Human normal melanocytes (from Kurabo Industries Ltd.), cultured in a medium for culturing melanocytes (Medium 254, from Kurabo Industries Ltd.), were collected using a cell scraper, and extraction was performed for the cells using PreteoExtract™ Subcellular Proteome Extraction Kit (Calbiochem), to thereby produce a protein solution, which was used as a crude tyrosinase protein solution. The dopa-oxidizing activity of the tyrosinase protein solution was measured to evaluate the tyrosinase activity-inhibiting action of Compound (1).
A 0.1% dopa solution, serving as a substrate, was prepared by dissolving L-β-(3,4-dihydroxyphenyl)alanine (L-DOPA) in 10 mM sodium phosphate buffer (pH 6.8) at a concentration of 0.1 (w/v) %. A crude tyrosinase protein solution, prepared to 1 to 5 μg/80 μL, was fed into a 96-well plate in an amount of 80 μL per well, and solutions of 10 μM, 100 μM, and 1,000 μM Compound (1) in DMSO were separately added to three wells each in an amount of 20 μL per well. Meanwhile, as positive controls, solutions of 10 μM, 100 μM, and 1,000 μM phenylthiourea, known as a tyrosinase activity inhibitor, in DMSO were separately added in the same way as above to different three wells each in an amount of 20 μL per well. In addition, as a control, DMSO was added to another different three wells each in an amount of 20 μL per well. Immediately after 100 μL each of the 0.1% dopa solution was added to the wells each containing the above-described test solution, absorbances at 450 nm were measured using a plate reader and were defined as 0-minute values. The 96-well plate was incubated at 37° C. for 10 minutes in the plate reader, and the absorbances at 450 nm were measured again and defined as 10-minute values. A value calculated by subtracting the 0-minute value from the 10-minute value of each well was defined as a 0→10 minute absorbance change value, and the average of 0→10 minute absorbance change value of control was defined as 100%, followed by measurement of dopa-oxidizing activities in the cases of treatments with various concentrations of test substances.

human normal melanocytes = experiment: Melanin formation inhibition test (14C-thiouracil uptake); assay type: cell-based; conditions: for Melanin level (%): three days culture, % of control
Protocol: The melanin formation inhibitory action of Compound (1) was evaluated using thiouracil (in this test, thiouracil labeled with ^14C was used), which is specifically taken into cells in a melanin synthesis process. A complete medium for culturing melanocytes (from Kurabo Industries Ltd.) was added to 15 wells of a 24-well plate in an amount of 2 ml per well, and human normal melanocytes (from Kurabo Industries Ltd.) were inoculated into each well at a concentration of 1.5×10^4 cells/cm^2. The cells were cultured at 37° C. for 24 hours under 5% carbon dioxide atmosphere. Thereafter, in all the wells, the medium was exchanged under the following conditions. That is, a fresh complete medium for culturing melanocytes was added to three wells (control), complete mediums for culturing melanocytes containing Compound (1) at concentrations of 1.0×10^−3 mM, 2.0×10^−3 mM, and 4.0×10^−3 mM were added to three wells each (total: nine wells), and a complete medium for culturing melanocytes containing 0.1 mM phenylthiourea, which is known as a tyrosinase inhibitor, was added to other three wells. In addition, to those 15 wells was added ^14C-thiouracil (thiouracil labeled with ^14C) was added at 0.25×10^−6 Ci (curie). The cells were cultured under the same conditions as above for further three days. After completion of the culture, the culture solution was removed from the wells, and the cells were washed with PBS (phosphate buffered saline) and detached with a medium containing trypsin and EDTA from the bottom of each well to produce cell suspensions, followed by centrifugation to collect the cells. The numbers of the cells were counted using a blood cell counting chamber. Thereafter, the ^14C-thiouracil level in the cells collected from each well was determined using a liquid scintillation counter. The percentage of a radiation dose of the cells cultured in each medium containing a test substance based on a radiation dose of the cells collected from the control wells was calculated to determine a melanin level (%). That is, it is considered that the smaller the radiation dose taken in the cells is, the smaller the melanin level is, resulting in a large melanin inhibition titer.

| Structure (SMILES) | expression level of Trp-2 (Trp-2) | expression level of Trp-1 (Trp-1) | expression level of tyrosinase (tyrosinase) | Dopa-oxidizing activity ([1]; 1 μM added substance) [%] | Dopa-oxidizing activity ([1]; 10 μM added substance) [%] | Dopa-oxidizing activity ([1]; 100 μM added substance) [%] | action on the activity of tyrosinase [1] | melanin formation inhibitory action (human normal melanocytes; 1.0-4.0 × 10^−3 mM) | Melanin level (%) (human normal melanocytes; 1.0 × 10^−3 mM in medium) | Melanin level (%) (human normal melanocytes; 2.0 × 10^−3 mM in medium) | Melanin level (%) (human normal melanocytes; 4.0 × 10^−3 mM in medium) | melanin formation inhibition titer relative to phenylthiourea (positive control) (human normal melanocytes; Compound (1) 4.0×10^−3 mM versus phenylthiourea 0.1 mM) [times] | inhibition of melanin formation (human normal melanocytes; cultured cell system of Test Example 1, concentration 25-fold lower than 100 μM) [%] | Melanin level (%) (human normal melanocytes; 0.1 mM in medium) |
| --- | --- | --- | --- | --- | --- | --- | --- | --- | --- | --- | --- | --- | --- | --- |
| CC(C)(C)c1cc(C(=O)c2cccs2)cc(C(C)(C)C)c1O [Compound (1), 2,6-di-tert-butyl-4-(2′-thenoyl)phenol] | did not affect | did not affect | did not affect | 103.55 ± 1.34 | 102.52 ± 3.68 | 102.52 ± 2.19 | did not inhibit the activity of tyrosinase | concentration-dependent melanin formation inhibitory action | 48.5 ± 2.3 | 27.9 ± 0.8 | 17.0 ± 0.8 | ≥ 20 | ≥ 80 |  |
| NC(=S)Nc1ccccc1 [Phenylthiourea, phenylthiourea, reference compound] |  |  |  | 64.07 ± 1.53 | 22.52 ± 1.09 | 4.73 ± 2.07 | had an action of inhibiting the activity of tyrosinase |  |  |  |  |  |  | 20.3 ± 3.8 |
